“Also recorded” adds a separate entry of the source.
Key:
A549 cells = assay: Digital PCR (ddPCR) detection of the efficiency of nucleic acid delivery by lipid; type: cell-based, human; conditions: boiling or reverse evaporation method; samples after 6 hours (No. 39: reverse evaporation, 6 and 12 hours)
Excerpt: 2.1 Experimental materials: A549 cells were purchased from the Cell Center of the Institute of Basic Medical Sciences, Chinese Academy of Medical Sciences, TRIzol lysis buffer was purchased from Sigma, High capacity cRNA Reverse Transcription Kit was purchased from ABI, USA, and the digital PCR related reagents were purchased from Bio-Rad USA.
2.2 Experimental method: the total cellular RNA was collected and extracted by TRIzol lysis buffer according to the above methods, and reverse transcribed to cDNA using High capacity cRNA Reverse Transcription Kit, and the cDNA from different groups was subject to digital PCR reaction. Refering to the QX200 Droplet Reader and QuantaSoft Software manual for the protocols, the results were analyzed using QuantaSoft software.
2.2 Experimental method: total RNA was collected and extracted by TRIzol lysis buffer according to the above method, and reverse transcribed to cDNA using High capacity cRNA Reverse Transcription Kit, and the cDNA from different groups was subjected to digital PCR reaction. Refer to the QX200 Droplet Reader and QuantaSoft Software manual for the protocols; the results were analyzed using QuantaSoft software.
2.2 Experimental method: Total RNA was collected and extracted by TRIzol lysis buffer according to the above method, and reverse transcribed to cDNA using TaqMan™ MicroRNA Reverse Transcription KitHigh, and the cDNA from different groups was subjected to digital PCR reaction. Refer to the QX200 Droplet Reader and QuantaSoft Software manual for the protocols; the results were analyzed using QuantaSoft software.
2.2 Experimental method: Total RNA was collected and extracted by TRIzol lysis buffer according to the above method, and reversed to cDNA using High capacity cRNA Reverse Transcription Kit, and the cDNA from different groups was subjected to digital PCR reaction. Refer to the QX200 Droplet Reader and QuantaSoft Software manual for the protocols; the results were analyzed using QuantaSoft software.

[1] = system: A549 cell (human lung adenocarcinoma cell); assay: In vitro delivery of lipid nucleic acid mixture, RT-qPCR of intracellular small RNA; type: cell-based; conditions: for delivery effect relative to that of RNAiMAX (real-time PCR): double-stranded HJT-sRNA-m7; for delivery of HJT-sRNA-m7 double-stranded RNA into A549 cells (real-time PCR): single lipid prepared by boiling or reverse evaporation method, RNA 100 nM, FIGS. 76, 91, 96, 99, 104, 106, 107; for abundance of sRNA of different sequences in the cells (Taqman probe): FIG. 11A-C, sRNA 200 nM, 3 hours, compared with the control; for delivery of HJT-sRNA-m7 single-stranded RNA into A549 cells (real-time PCR): single lipid, FIGS. 78, 92, 103
Description: 3.1 NCI-N87 cell (gastric cancer cell), MRC-5 cell (lung fibroblast), A549 cell (lung cancer cell) were cultured to logarithmic growth phase, and then plated to a six-well plate at cell density of 1×10^6/2 mL medium/well; MRC-5 cell was cultured in Eagle's MEM medium (MEM, Gibco); A549 cell was cultured in Ham's F-12 medium (HyClone); NCI-N87 cell was cultured in RPMI-1640 medium (HyClone); followed by incubation overnight at 37° C., and the follow-up experiments were performed after the cells were attached to the walls.
3.3 After co-incubation with the small RNA for 3 hours, the cells were washed 2-3 times with PBS. The cells were harvested with TRIzol lysis buffer, and the total RNA was extracted. The abundance of small RNA that entered cells was detected by RT-qPCR, and the localization of RNA was detected by fluorescence in situ hybridization; protocols of each detection method were as follows:
1) The sRNA was reverse transcribed to cDNA: Reverse Transcription Kit (High-Capacity cDNA Reverse Transcription Kits, Applied Biosystems, cat. No. 4368813) was used to reverse transcribe sRNA into cDNA by stem-loop method, and the reverse transcription system was as follows: RNA template (150 ng/μl) 10 μl, 10×RT buffer, 2.0 μl, 25× dNTP Mix (100 mM) 0.8 μl, U6 RT stem-loop primer 2.0 μl, HJT-sRNA-RT-m7 stem-loop primer 2.0 μl, MultiScribe™ reverse transcriptase 1.0 μl, RNase inhibitor 1.0 μl, nuclease-free H2O 1.2 μl, loaded into a PCR reactor after brief centrifugation, the reaction conditions were as follows: (1) 25° C., 10 min; (2) 37° C., 120 min; (3) 85° C., 5 min; (4) 4° C., termination of the reaction. 20 μl RNase-free ddH2O was added to make up the final volume to 40 μl after the reaction. The stem-loop primer used in the reverse transcription process was synthesized by Beijing Tsingke Biotechnology Co., Ltd.
2) Quantitative PCR amplification reaction: the qPCR reaction system has a total volume of 10 μl, containing: 5 μL 2×SYBR Green Master Mix, 0.5 μl forward primer ([…]), 0.5 μl reverse primer (10 μM), 1 μl cDNA by reverse transcription, 3 RNase-free dH2O. LightCycler 480 fluorescence quantitative PCR instrument was used, and the PCR reaction conditions were: 95° C. for 5 min for pre-denaturation, followed by PCR amplification cycle: (1) 95° C., 10 s; (2) 55° C., 10 s; (3) 72° C. , 20 s; a total of 40 cycles; 40° C. for 10 s in the end to cool down. Both the forward and reverse primers of the amplification reaction were designed and synthesized by Beijing Tsingke Biotechnology Co., Ltd.
3) The relative expression level was calculated by 2-ΔCt method.
100 μl lipid in diethyl ether solution was prepared, and grouped according to the lipid numbers shown in Table 1 (the lipid concentrations are shown in the table below). To the lipid solution was added 20 μl nucleic acid solution (HJT sRNA or siRNA) at the volume ratio of 5:1, and sonicated for after 3 min. The diethyl ether was removed by evaporation at 55° C., and then 100 μl DEPC water was added for hydration to give nucleic acid lipid mixture.
100 μL of the nucleic acid solution (HJT sRNA or siRNA) was added to 2-5 μL of the lipid in chloroform (the concentration was shown in Table 1), mixed, and heated at 80-100° C. for 15-30 min to give nucleic acid lipid mixture.
3.1.1 MRC-5 cell (pulmonary embryonic fibroblast), A549 cell (human lung adenocarcinoma cell), Caco-2 cell (human colon adenocarcinoma cell) (purchased from the Cell Resource Center of the Institute of Basic Medical Sciences, Chinese Academy of Medical Sciences) were cultured to logarithmic growth phase, then plated into 12-well plates at a cell density of 6×10^5/1 mL medium/well; MRC-5 and Caco-2 cells were cultured in Eagle's MEM medium (MEM, Gibco); A549 cells were cultured in Ham's F-12 medium (HyClone); followed by incubation overnight at 37° C., and the follow-up experiments were performed after the cells were attached to the walls. […]

| Compound | delivery of HJT-sRNA-m7 dsRNA into A549 cells (ddPCR) (A549 cells) | delivery effect relative to that of RNAiMAX (real-time PCR) ([1]; reverse evaporation method) | delivery of HJT-sRNA-m7 double-stranded RNA into A549 cells (real-time PCR) [1] | abundance of sRNA of different sequences in the cells (Taqman probe) ([1]; reverse evaporation method) | delivery of HJT-sRNA-m7 single-stranded RNA into A549 cells (real-time PCR) ([1]; boiling method) | delivery effect relative to that of RNAiMAX (real-time PCR) ([1]; boiling method) |
| --- | --- | --- | --- | --- | --- | --- |
| CCCCCCCC/C=C\CCCCCCCCCCCC(=O)O[C@H](COC(=O)CCCCCCCCCCCCCCC)COP(=O)(O)OCCN [No. 40, (2-aminoethoxy) [(2R)-2-[(13Z)-docos-13-enoyloxy]-3-(hexadecanoyloxy)propoxy] phosphinic acid] | could effectively deliver HJT-sRNA-m7 dsRNA into A549 cells | ½ | delivered double-stranded RNA into A549 cells | – | – | – |
| CCCCC/C=C\C/C=C\CCCCCCCC(=O)O[C@H](COC(=O)CCCCCCCCCCCCCCC)COP(=O)([O-])OCC[N+](C)(C)C [No. 12, (2-{[(2R)-3-(hexadecanoyloxy)-2-[(9Z,12Z)-octadeca-9,12-dienoyloxy]propylphosphonato]oxy}ethyl) trimethylazanium] | – | – | – | could effectively facilitate nucleic acid molecules of different sequences entry into various cells | – | – |
| CCCCCC/C=C\CCCCCCCC(=O)O[C@H](COC(=O)CCCCCCCCCCCCCCC)COP(=O)(O)OCCN [No. 38, (2-aminoethoxy) [(2R)-2-[(9Z)-hexadec-9-enoyloxy]-3-(hexadecanoyloxy)propoxy] phosphinic acid] | could effectively deliver HJT-sRNA-m7 dsRNA into A549 cells | – | delivered double-stranded RNA into A549 and MRC-5 cells | – | the efficiency of delivery was much higher than that of RNAiMAX | – |
| CCCCCCCCCCCCCCCCCCC[C@@H](O)[C@@H](N)CO [No. 41, Sphinganine (d22:0)] | could effectively deliver HJT-sRNA-m7 dsRNA into A549 cells; also recorded: the boiling method had better effects than reverse evaporation method | significantly higher than that of RNAiMAX | delivered HJT-sRNA-m7 double-stranded RNA into A549 cells | – | delivered HJT-sRNA-m7 single-stranded RNA into A549 and MRC-5 cells | about twice |
| CCCCC/C=C\C/C=C\CCCCCCCC(=O)O[C@H](COC(=O)CCCCCCCCCCCCCCCCC)COP(=O)([O-])OCC[N+](C)(C)C [No. 11, trimethyl(2-{[(2R)-2-[(9Z, 12Z)-octadeca-9,12-dienoyloxy]-3-(octadecanoyloxy)propyl-phosphonato]oxy}ethyl) azanium] | – | – | – | could effectively facilitate nucleic acid molecules of different sequences entry into various cells | – | – |
| CCCCCCCC/C=C\CCCCCCCCCCCCCC(=O)O[C@H](COC(=O)CCCCCCCCCCCCCC)COP(=O)(O)OCCN [No. 64, 1-pentadecanoyl-2-nervonoyl-sn-glycero-3-phospho-ethanolamine] | – | – | delivered HJT-sRNA-m7 double-stranded RNA into A549 cells | – | – | about 3 times that of RNAiMAX |

Reference: patent US20210100905A1, “APPLICATION OF COMPOUND OR TRADITIONAL CHINESE MEDICINE EXTRACT IN PREPARATION OF NUCLEIC ACID DELIVERY AGENT, AND RELATED PRODUCTS” (INSTITUTE OF BASIC MEDICAL SCIENCES CHINESE ACADEMY OF …, priority 2018, published 2021)
